According to patent publication US20060134794A1, “Method of detecting the presence and/or progression of cancer” (priority 2004, published 2006):

Assays:
[1] = tested on: aging-related isoform (arNOX); conditions: previous findings described in the background; cited from earlier work
constitutive CNOX [2] = biological target: T1, constitutive CNOX (Homo sapiens, UniProt Q8TC92); experiment: NOX assay with human mammary adenocarcinoma (BT-20) cells: CNOX; assay type: cell-based; parameters: endogenous in cells; conditions: 100 μM AgO; 2×10^6 BT-20 cells
T1 sequence (Q8TC92 1-643): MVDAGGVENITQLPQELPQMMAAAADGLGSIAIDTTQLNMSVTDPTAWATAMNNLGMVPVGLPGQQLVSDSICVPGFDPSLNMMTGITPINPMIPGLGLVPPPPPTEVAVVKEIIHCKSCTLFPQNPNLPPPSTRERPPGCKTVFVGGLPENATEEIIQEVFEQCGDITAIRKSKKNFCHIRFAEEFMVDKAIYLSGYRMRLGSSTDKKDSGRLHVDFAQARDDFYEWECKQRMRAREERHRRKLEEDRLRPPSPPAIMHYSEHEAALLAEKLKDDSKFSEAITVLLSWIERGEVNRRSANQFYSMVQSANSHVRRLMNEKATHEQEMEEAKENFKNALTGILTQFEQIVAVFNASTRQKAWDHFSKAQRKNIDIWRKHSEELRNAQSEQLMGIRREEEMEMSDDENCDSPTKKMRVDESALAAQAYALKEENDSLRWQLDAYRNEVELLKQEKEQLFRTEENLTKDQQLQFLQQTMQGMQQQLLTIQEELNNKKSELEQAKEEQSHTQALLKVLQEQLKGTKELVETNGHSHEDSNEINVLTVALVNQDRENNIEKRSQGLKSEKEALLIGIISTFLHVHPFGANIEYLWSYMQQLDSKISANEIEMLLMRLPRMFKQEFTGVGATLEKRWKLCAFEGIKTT
Description: (§1) FIG. 5 presents results from an assay using 2×10^6 human mammary adenocarcinoma (BT-20) cells carried out as described for FIG. 2. Panel A (no addition) received only the phosphoric acid (0.0017%).
(§2) Growth of cells. Cells were grown in culture in a humidified atmosphere of 5% CO2 in air at 37° C. Media were renewed every 2 to 3 days. HeLa (ATCC CCL2) cells were grown in 175-cm^2 flasks in Minimal Essential Medium (Gibco), pH 7.4 at 37° with 10% fetal bovine serum (heat-inactivated), plus 50 mg/L gentamycin sulfate (Sigma). Cells were harvested by scraping and taken up in 140 mM NaCl, 5 mM KCl, 0.7 mM Na2HPO4 and 25 mM Tris, pH 7.4, to a final cell concentration of 0.1 g wet weight (gww) per mL. MCF-10A human mammary epithelial cells were cultured in a 1:1 mixture of Ham's F12 medium and Dulbecco's Modified Eagle's medium containing glutamine (Z92 mg/L), hydrocortisone (0.5 μg/mL), EGF (20 ng/mL), and 5% horse serum. Medium was renewed every 2-3 days. […]
(§3) Spectrophotometric assay of NADH Oxidase. NAD(P)H oxidase activities were measured using paired Hitachi U3210 spectrophotometers over successive 5-minutes intervals (two to four or more at low inhibitory concentrations) at 37° C. The activity was determined as the disappearance of NAD(P)H measured at 340 nm. […]

tNOX [3] = biological target: T2, tNOX (Homo sapiens, UniProt Q16206); experiment: NOX assay with human mammary adenocarcinoma (BT-20) cells: tNOX; assay type: cell-based; parameters: endogenous in cells; conditions: 100 μM AgO; 2×10^6 BT-20 cells
T2 sequence (Q16206 1-610): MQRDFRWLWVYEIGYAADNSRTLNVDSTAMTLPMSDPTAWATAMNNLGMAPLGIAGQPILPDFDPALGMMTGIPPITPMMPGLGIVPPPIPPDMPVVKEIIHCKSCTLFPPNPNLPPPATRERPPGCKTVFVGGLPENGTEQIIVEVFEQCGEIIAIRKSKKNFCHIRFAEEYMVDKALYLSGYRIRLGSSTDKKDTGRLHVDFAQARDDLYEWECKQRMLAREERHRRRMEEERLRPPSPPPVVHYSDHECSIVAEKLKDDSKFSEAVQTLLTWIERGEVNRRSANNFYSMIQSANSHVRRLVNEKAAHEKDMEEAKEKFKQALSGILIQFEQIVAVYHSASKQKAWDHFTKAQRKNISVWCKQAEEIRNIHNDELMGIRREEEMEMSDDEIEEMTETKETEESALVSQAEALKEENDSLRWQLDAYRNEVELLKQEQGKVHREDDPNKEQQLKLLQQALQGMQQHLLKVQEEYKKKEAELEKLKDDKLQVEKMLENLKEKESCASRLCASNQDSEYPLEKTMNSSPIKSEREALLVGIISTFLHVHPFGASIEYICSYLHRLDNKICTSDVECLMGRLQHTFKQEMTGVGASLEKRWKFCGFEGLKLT
Description: as §1, §2, §3

constitutive CNOX [4] = biological target: T1, constitutive CNOX; experiment: NOX assay with human mammary epithelial (non-cancer) MCF-10A cells: CNOX; assay type: cell-based; parameters: solubilized ECTO-NOX activities released from the surface of HeLa cells by treatment at pH 5; endogenous in cells; host or cells: HeLa S cells, cell-free pH 5 extract; conditions: 100 μM AgO added in 1.7% phosphoric acid; 10^6 MCF-10A cells
Description: (§4) FIG. 6 is as for FIG. 5 except that the assay was with 10^6 human mammary epithelial (non-cancer) MCF-10A cells. These cells lacked tNOX as their surface and contained predominantly a constitutive CNOX (single arrows) which was not inhibited by the 100 μM AgO added in 1.7% phosphoric acid. The MCF-10A cells were late passage cells and contained, as well, an age-related NOX (arNOX) with a period length of 26 minutes. This activity was inhibited by the AgO as shown in Panel B.
as §2, with “mL.” for “mL. MCF-10A human mammary epithelial cells were cultured in a 1:1 mixture of Ham's F12 medium and Dulbecco's Modified Eagle's medium containing glutamine (Z92 mg/L), hydrocortisone (0.5 μg/mL), EGF (20 ng/mL), and 5% horse serum. Medium was renewed every 2-3 days.”
as §3

constitutive CNOX [5] = biological target: T1, constitutive CNOX; experiment: NOX (NADH oxidase) assay of solubilized ECTO-NOX activities released from the surface of HeLa cells: CNOX; assay type: biochemical; parameters: solubilized ECTO-NOX activities released from the surface of HeLa cells by treatment at pH 5; endogenous in cells; host or cells: HeLa S cells, cell-free pH 5 extract
Description: (§5) FIG. 2 is similar to FIG. 1 except that a preparation of solubilized ECTO-NOX activities released from the surface of HeLa cells by treatment at pH 5 (del Castillo-Olivares et al., Arch. Biochem. Biophys. 358: 125-140, 1998) was used as the enzyme source. The AgO was dissolved in DMSO added at a final concentration of AgO of 1 mM. The final concentration of DMSO added in both A and B after 45 minutes was 0.1%. The assays were then continued for and additional 45 minutes. The HeLa extracts contain both the constitutive CNOX (single arrows denoting a 24 minutes period length) and two activity maxima separated by 6 minutes and labeled (1) and (2) which are tNOX (double arrows). With addition of AgO, both tNOX activities are inhibited while the constitutive CNOX remain unaffected. Values are based on three experiments and report means±standard deviations to establish statistical reliability of the data.
FIG. 3 represents the response of total NOX (NADH oxidase) activity of the preparation of FIG. 2 as a function of the logarithm of AgO concentration. […]
as §3

[6] = biological target: T3, recombinant form of tNOX (nus tNOX) (Homo sapiens, UniProt Q16206); experiment: standard NOX assay (oxidation of NADH, decrease in A340) with recombinant tNOX; assay type: biochemical; conditions: 100 μM AgO in 1.7% phosphoric acid added after 45 minutes; 25° C
T3 construct: nus tag
T3 sequence (Q16206 1-610): T2 sequence (Q16206 1-610)
Description: In panel A, an equivalent amount of phosphoric acid was added. The assay measured oxidation of NADH (decrease in A340) in a standard NOX assay at 25° C.
(§6) Spectrophotometric assay of NADH Oxidase. NAD(P)H oxidase activities were measured using paired Hitachi U3210 spectrophotometers over successive 5-minutes intervals (two to four or more at low inhibitory concentrations) at 37° C. The activity was determined as the disappearance of NAD(P)H measured at 340 nm. The reaction mixture included sample, 50 mM Tris-MES, pH 7.0, 2 mM KCN, and 150 μM NAD(P)H in a total volume of 2.5 ml at 37° C. with stirring. A millimolar extinction coefficient of 6.22 was used to determine NAD(P)H disappearance.

constitutive CNOX [7] = experiment: NOX assay with solubilized soybean plasma membranes; assay type: biochemical, soybean (Glycine max); conditions: plasma membranes solubilized in 0.1% Triton X-100 overnight
Description: FIG. 7 is similar to FIG. 6 except that plasma membranes isolated from etiolated hypocotyls (stems) of soybean (Glycine max) were the enzyme source. The plasma membranes were solubilized in 0.1% Triton X-100 overnight prior to assay. The soybean plasma membranes contain only a constitutive CNOX which is unresponsive to AgO.
as §6

age-related NOX (arNOX) = experiment: NOX assay with human mammary epithelial (non-cancer) MCF-10A cells: arNOX; assay type: cell-based; conditions: 100 μM AgO added in 1.7% phosphoric acid; late passage MCF-10A cells
Description: as §4
as §2, with “mL.” for “mL. MCF-10A human mammary epithelial cells were cultured in a 1:1 mixture of Ham's F12 medium and Dulbecco's Modified Eagle's medium containing glutamine (Z92 mg/L), hydrocortisone (0.5 μg/mL), EGF (20 ng/mL), and 5% horse serum. Medium was renewed every 2-3 days.”
as §3

tNOX [8] = biological target: T2, tNOX; experiment: NOX (NADH oxidase) assay of solubilized ECTO-NOX activities released from the surface of HeLa cells: tNOX; assay type: biochemical; parameters: solubilized ECTO-NOX activities released from the surface of HeLa cells by treatment at pH 5; endogenous in cells; host or cells: HeLa S cells, cell-free pH 5 extract
Description: as §5
FIG. 3 represents the response of total NOX (NADH oxidase) activity of the preparation of FIG. 2 as a function of the logarithm of AgO concentration. The AgO was dissolved in 1.7% phosphoric acid and the dilutions were prepared in water. […] The EC50 of tNOX inhibition was estimated to be about 5 μM.
as §6
Preparation of HeLa Cells and Cell-Free Extracts. HeLa S cells were collected by centrifugation and shipped frozen in 0.1 M sodium acetate, pH 5, in a ratio of 1 mL of packed cell volume to 1 mL of acetate (Cellex Biosciences). The cells were thawed at room temperature, resuspended, and incutated at 37° for 1 hr to release the protein. […]

[9] = AgO dissolved in DMSO, final concentration 1 mM, added after 45 minutes

| Structure (SMILES) | effect on generation of superoxide by arNOX [1] | effect on constitutive CNOX (constitutive CNOX [2]) | inhibition of the two activity maxima associated with tNOX (tNOX [3]) | inhibition of constitutive CNOX (constitutive CNOX [4]) | inhibition of constitutive CNOX (constitutive CNOX [5]; AgO concentration series in 1.7% phosphoric acid/water) | effect on constitutive CNOX activity (constitutive CNOX [5]; [9]) | inhibition of recombinant tNOX NADH oxidase activity [6] | response of constitutive CNOX to AgO (constitutive CNOX [7]) | inhibition of age-related NOX (arNOX) activity (age-related NOX (arNOX)) | inhibition of tNOX (tNOX [8]; AgO concentration of 100 μM (10^−4M)) | EC50 (tNOX [8]; AgO dissolved in 1.7% phosphoric acid, dilutions in water, estimated from total NOX activity, read-out: EC50 of tNOX inhibition) [µM] | inhibition of tNOX activities (tNOX [8]; [9]) |
| --- | --- | --- | --- | --- | --- | --- | --- | --- | --- | --- | --- | --- |
| COC1=C(OC)C(=O)C(C/C=C(\C)CC/C=C(\C)CC/C=C(\C)CC/C=C(\C)CC/C=C(\C)CC/C=C(\C)CC/C=C(\C)CC/C=C(\C)CC/C=C(\C)CCC=C(C)C)=C(C)C1=O [coenzyme Q] | inhibition | – | – | – | – | – | – | – | – | – | – | – |
| [O]=[Ag] [AgO, silver (II) oxide] | – | without effect | inhibited | not inhibited | not inhibited | unaffected | inhibited completely | unresponsive | inhibited | completely inhibited | ~5 | inhibited |
